Measured values taken from ChEMBL document CHEMBL4680107, “2-Aminopyridine-Based Mitogen-Activated Protein Kinase Kinase Kinase Kinase 4 (MAP4K4) Inhibitors: Assessment of Mechanism-Based Safety” (J Med Chem, 2018).

Biological target: CYP3A4 (Homo sapiens, UniProt P08684)
Assay: Time-dependent inhibition of CYP3A4 (unknown origin) using midazolam as substrate at 60 uM incubated for 30 mins relative to control
Format: ADME
Conditions: probe midazolam, read-out: TDI

CYP3A4, sequence (P08684 whole entry): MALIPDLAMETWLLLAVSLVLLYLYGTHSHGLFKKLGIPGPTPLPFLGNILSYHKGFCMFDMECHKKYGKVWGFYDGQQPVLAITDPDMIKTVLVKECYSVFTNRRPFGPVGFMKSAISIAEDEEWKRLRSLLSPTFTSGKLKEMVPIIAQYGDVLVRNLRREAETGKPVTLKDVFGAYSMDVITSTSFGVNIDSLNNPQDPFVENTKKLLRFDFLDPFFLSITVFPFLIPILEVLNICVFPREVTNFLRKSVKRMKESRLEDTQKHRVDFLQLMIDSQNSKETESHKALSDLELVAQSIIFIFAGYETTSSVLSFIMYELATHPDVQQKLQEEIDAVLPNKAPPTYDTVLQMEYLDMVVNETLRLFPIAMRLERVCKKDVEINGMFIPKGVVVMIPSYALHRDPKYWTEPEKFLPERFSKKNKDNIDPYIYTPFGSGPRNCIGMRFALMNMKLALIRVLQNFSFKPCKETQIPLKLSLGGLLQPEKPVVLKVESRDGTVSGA

inhibition at 0.5 h, 60 µM [%]	Structure (SMILES)
57	Nc1ncc(-c2ccc(-c3nn[nH]n3)cc2)cc1-c1ccc(Cl)cc1
41	Nc1ncc(-c2ccc(C(=O)O)cc2)cc1OCc1ccccc1
26	Nc1ncc(-c2ccc(NCC(=O)O)nc2)cc1-c1ccc(Cl)cc1
59	NC(=O)c1ccc(-c2cnc(N)c(-c3ccc(Cl)cc3)c2)cc1
